Patent publication US7074812B2, “Development of muscle mass in a mammal” (Nutraleutical Development Corporation, priority 2002, dated 2006)
Read-outs that look alike come from different tables or passages of the source.

Tests used:
[1] = test system: males aged 30–59 years old
Protocol: In order to determine the effects of a nicotine supplement on human subjects, a double blind placebo controlled study was conducted. The study tested 32 males aged 30–59 years old. Each participant needed to have been weight-lifting and exercising on a consistent basis for at least one full year prior to the study. The study required each of the 32 males to remain consistent with their current exercise program (minimum of 3×'s per week), required not to add any new exercises to their current program, not add any new supplements to their diet during the six week study and to take the nicotine supplement 30 minutes prior to exercise. The nicotine supplement was 3 micrograms of nicotine in a standard 300 mg capsule containing polyethylene gycol (PEG) as a vehicle. The placebo capsule was identical in all aspects but contained no active (nicotine) ingredients.
The 32 males were subdivided into 4 groups, 2 placebo groups (8 took 1 capsule and 8 took 2 capsules with no active nicotine ingredients prior to exercise). In the other two groups (active), 8 subjects took 3 micrograms of nicotine and 8 took 6 micrograms of nicotine prior to exercise. The individuals were tested in the beginning and conclusion of the study in the following areas: (1) overall body fat/lean muscle ratio (ELG impedance test was used, which is 98% accurate compared to skinfold testing); (2) biceps; (3) upper leg muscle mass; and (4) 10 exercise repetition maximum, for both upper and lower body strength test (bench press and leg press). Participant workouts were logged by each individual in their own notebooks, to ensure consistency and compliance

healthy male mice = details: 60 micrograms nicotine/ml drinking water
Excerpt: To study the effects of nicotine in the diet of mice in combination with exercise, 34 mice were divided into two equal groups. The diet of one group of mice was supplemented with nicotine added to the drinking water and the other group had plain water. Both groups received the same chow and water freely.
The experiment was a double-blind investigative study including a total of 34 healthy male mice that were approximately 9 weeks old, weighing approximately 35 grams. The mice were received one week prior to the start of the study to allow for a week of acclimation to the study site and the handlers. Because mice are active when it is dark and sleep when it is light, an automatic lighting system (12 hour dark/12 hour light) was set up for the duration of the study. The dark cycle was from 9 pm to 9 am and the light cycle from 9 am to 9 pm. The mice were subjected to a 3 week weighted exercise regimen on a treadmill wheel.
The 34 mice were divided in 2 groups of 17 mice each. Group 1 (nicotine treatment) received water laced with nicotine containing 60 micrograms nicotine/ml water and 10 mg saccharine tablet or pinch of a sugar substitute powder. The sugar substitute served to mask the bitter taste of nicotine in the water. Group 2 (placebo or control) followed the same weight exercise regimen as the nicotine treatment group. Their drinking water was plain water with the same amount of saccharine or sugar substitute as in Group 1. Each mouse had access to its water ad libitum daily during the study period, regardless of the group. Weekly water consumption was measured.
Mice in both groups were subjected to a weight/exercise regimen in the morning at the end of the dark cycle around 8:00 am. Weights were affixed to each animal at the beginning of the exercise. The weights were approximately 10% of body weight measured at Day -1 of the study, and adjusted based on body weight, measured weekly. The mice were exercised for 15 minutes per day or until exhaustion, 5 days a week for 3 weeks on a Mouse Forced Exercise Walking/Running Wheel System (Model 80800, Lafayette Instrument, North Lafayette, Ind. 47903). The largest part of the upper hind muscle of the mice was measured with a dial caliper every week. Two measurements on each leg were taken and the average was calculated.

[2] = 1 capsule (3 micrograms of nicotine), n = 8
[3] = 2 capsules (6 micrograms of nicotine), n = 8
[4] = Nicotine 1 or 2 capsules pooled, n = 16
[5] = individual subjects, six-week study

With `CN1CCCC1c1cccnc1` (stereo not shown) [Nicotine, nicotine] the “Upper-body Strength, Change Over Study (Post-Pre), Median (Range)” value (“Upper-body Strength, Change Over Study” below) ([1]; 1 capsule (3 micrograms of nicotine) prior to exercise, n = 8, bench press 10 repetition maximum) was 10.00 (5.00, 20.00), the “Bicep Circumference, Change Over Study (Post-Pre), Median (Range)” value (“Bicep Circumference, Change Over Study” below) [1, 2] was 0.45 (−0.20, 2.00) cm and the “Body Fat %, Change Over Study (Post-Pre), Median (Range)” value (“Body Fat %, Change Over Study” below) [1, 2] was −0.65 (−1.90, 0.70) %. The “Body Mass Index, Change Over Study (Post-Pre), Median (Range)” value (shortened to “Body Mass Index, Change Over Study”) [1, 2] was −0.13 (−0.79, 0.45), the “Lean Mass %, Change Over Study (Post-Pre), Median (Range)” value (from here on “Lean Mass %, Change Over Study”) [1, 2] was 0.65 (−0.70, 1.90) % and the “Quadricep Circumference, Change Over Study (Post-Pre), Median (Range)” value [1, 2] was 0.00 (−2.00, 2.50) cm. For the same compound, the “Weight, Change Over Study (Post-Pre), Median (Range)” value (“Weight, Change Over Study (Post-Pre)” for short) [1, 2] was −1.00 (−6.00, 3.00) lbs, the “Lower-body Strength, Change Over Study (Post-Pre), Median (Range)” value (“Lower-body Strength, Change Over Study” for short) ([1]; 1 capsule (3 micrograms of nicotine), n = 8, leg press 10 repetition maximum) was 65.00 (15.00, 90.00) and the “Upper-body Strength, Change Over Study” value ([1]; 2 capsules (6 micrograms of nicotine) prior to exercise, n = 8, bench press 10 repetition maximum) was 10.00 (5.00, 20.00). The “Bicep Circumference, Change Over Study” value [1, 3] was 0.63 (−1.50, 1.70) cm, the “Body Fat %, Change Over Study” value [1, 3] was −1.05 (−5.90, 0.10) % and the “Body Mass Index, Change Over Study” value [1, 3] was −0.08 (−1.22, 0.94). The “Lean Mass %, Change Over Study” value [1, 3] was 1.05 (−0.10, 5.90) %, the “Quadricep Circumference, Change Over Study (Post-Pre), Median (Range)” value [1, 3] was 0.00 (−2.00, 3.00) cm and the “Weight, Change Over Study (Post-Pre)” value [1, 3] was −0.50 (−8.00, 6.75) lbs. For the same compound, the “Lower-body Strength, Change Over Study” value ([1]; 2 capsules (6 micrograms of nicotine), n = 8, leg press 10 repetition maximum) was 80.00 (20.00, 320.00), the “Bicep Circumference, Change Over Study” value [1, 4] was 0.45 (−1.50, 2.00) cm and the “Body Fat %, Change Over Study” value [1, 4] was −0.95 (−5.90, 0.70) %. For the same compound, the “Body Mass Index, Change Over Study” value [1, 4] was −0.11 (−1.22, 0.94), the “Lean Mass %, Change Over Study” value [1, 4] was 0.95 (−0.70, 5.90) % and the “Lower-body Strength, Change Over Study” value [1, 4] was 70.00 (15.00, 320.00). The “Quadricep Circumference, Change Over Study (Post-Pre), Median (Range)” value [1, 4] was 0.00 (−2.00, 3.00) cm, the “Upper-body Strength, Change Over Study” value [1, 4] was 10.00 (5.00, 20.00) and the “Weight, Change Over Study (Post-Pre)” value [1, 4] was −0.75 (−8.00, 6.75) lbs. For the same compound, the “subjects who noted an increase in overall endurance, leg strength and a strong thermogenic effect” value ([1]; active (nicotine) group, six-week study) was 13 of the 16, the “individuals who made significant changes in either body, strength levels or muscle mass or in all three test areas” value ([1]; active (nicotine) group, placebo five of the sixteen) was “Fifteen of the sixteen” and the “change of overall body fat, one subject” value ([1]; individual subject, six-week study) was 32%. The “increase of leg strength, five subjects” value [1, 5] was “over 25%”, the “increase of leg strength, two of the five subjects” value [1, 5] was 40% and the “increase in leg diameter versus control group, overall” value (healthy male mice; 3 weeks) was “significantly greater increase in leg diameter”. The “average increase of leg diameter, average of day 7, 14 and 21 compared with day 0” value (healthy male mice; control 0.5 mm) was 1.7 mm, the “average increase of leg diameter compared to day 0” value (healthy male mice; day 7, control 0.6 mm) was 1.6 mm and the “average increase of leg diameter compared to day 0” value (healthy male mice; day 14, control 2.1 mm) was 2.8 mm. For the same compound, the “increase of leg diameter compared to day 0” value (healthy male mice; day 21, control 1.1 mm decrease) was 0.7 mm.
